Converted amounts (≈) assume the structure as drawn.
How the values were obtained:
[1] = tested on: Staphylococcus aureus S13E; assay type: cell-based
Procedure: (§1) The MIC's were determined using a standard broth micro-dilution assay.

[2] = tested on: Entercoccus faecium 180-1; assay: broth micro-dilution MIC; assay type: cell-based
Procedure: as §1

Entercoccus faecium 276 = assay: broth micro-dilution MIC; assay type: cell-based
Procedure: as §1

[3] = tested on: Staphylococcus aureus 489; assay: broth micro-dilution MIC; assay type: cell-based
Procedure: as §1

[4] = tested on: Staphylococcus aureus SA1199A; assay: broth micro-dilution MIC; assay type: cell-based
Procedure: as §1

[5] = tested on: Staphylococcus aureus SA1199; assay: broth micro-dilution MIC; assay type: cell-based
Procedure: as §1

[6] = tested on: Staphylococcus aureus X400; assay: broth micro-dilution MIC; assay type: cell-based
Procedure: as §1

[7] = tested on: Staphylococcus aureus X778; assay: broth micro-dilution MIC; assay type: cell-based
Procedure: as §1

[8] = tested on: Streptococcus pyogenes C203; assay: broth micro-dilution MIC; assay type: cell-based
Procedure: as §1

Entercoccus faecium 2041 = assay: broth micro-dilution MIC; assay type: cell-based; conditions: Entercoccus faecium 2041
Procedure: (§2) The formula I compounds have in vitro and in vivo activity against Gram-positive pathogenic bacteria. The MIC's were determined using a standard broth micro-dilution assay.

[9] = tested on: Enterococcus gallinarum 245; assay: broth micro-dilution MIC; assay type: cell-based; conditions: Enterococcus gallinarum 245
Procedure: as §2

[10] = tested on: Streptococcus pneumoniae P1; assay: broth micro-dilution MIC; assay type: cell-based
Procedure: as §2

[11] = tested on: vancomycin-resistant enterococci; assay: broth micro-dilution, mean geometric MIC; assay type: cell-based, Enterococcus faecium and Enterococcus faecalis; conditions: enterococci, 24-hour incubation
[12] = tested on: vancomycin-susceptible enterococci; assay: broth micro-dilution, mean geometric MIC; assay type: cell-based, Enterococcus faecium and Enterococcus faecalis; conditions: enterococci, 24-hour incubation
[13] = tested on: Staphylococcus aureus SA1199B; assay type: cell-based
Procedure: as §1

[14] = tested on: Staphylococcus aureus 446; assay: broth micro-dilution MIC; assay type: cell-based
Procedure: as §1

[15] = tested on: Staphylococcus aureus 447; assay: broth micro-dilution MIC; assay type: cell-based
Procedure: as §1

Entercoccus faecium 180 = assay: broth micro-dilution MIC; assay type: cell-based; conditions: Entercoccus faecium 180
Procedure: as §2

[16] = tested on: Staphylococcus epidermidis 270; assay: broth micro-dilution MIC; assay type: cell-based
Procedure: as §2

[17] = tested on: Staphylococcus haemolyticus 105; assay: broth micro-dilution MIC; assay type: cell-based
Procedure: as §2

[18] = tested on: Staphylococcus haemolyticus 415; assay: broth micro-dilution MIC; assay type: cell-based
Procedure: as §2

Compound | MIC [1] [µg/mL] | MIC [2] [µg/mL] | MIC (Entercoccus faecium 276) [µg/mL] | MIC [3] [µg/mL] | MIC [4] [µg/mL] | MIC [5] [µg/mL] | MIC [6] [µg/mL] | MIC [7] [µg/mL] | MIC [8] [µg/mL] | MIC (Entercoccus faecium 2041) [µg/mL] | MIC [9] [µg/mL] | MIC [10] [µg/mL] | mean geometric MIC, Vancomycin Resistant Strains [11] [µg/mL] | mean geometric MIC, Vancomycin Sensitive Strains [12] [µg/mL] | MIC [13] [µg/mL] | MIC [14] [µg/mL] | MIC [15] [µg/mL] | MIC (Entercoccus faecium 180) [µg/mL] | MIC [17] [µg/mL] | MIC [18] [µg/mL] | other results
CNC(CC(C)C)C(=O)NC1C(=O)NC(CC(N)=O)C(=O)NC2C(=O)NC3C(=O)NC(C(=O)NC(C(=O)O)c4cc(O)cc(O)c4-c4cc3ccc4O)C(OC3CC(C)(N)C(O)C(C)O3)c3ccc(c(Cl)c3)Oc3cc2cc(c3OC2OC(CO)C(O)C(O)C2OC2CC(C)(NCc3cccc4c([N+](=O)[O-])cccc34)C(O)C(C)O2)Oc2ccc(cc2Cl)C1O (stereo not drawn) [Compound 25] | ≤ 0.06 | ≤ 0.06 | 0.25 (≈ 0.141 µM) | ≤ 0.06 | ≤ 0.06 | ≤ 0.06 | ≤ 0.06 | ≤ 0.06 | ≤ 0.06 | 0.25 (≈ 0.141 µM) | ≤ 0.06 | ≤ 0.06 | 4.0 | 0.22 | – | – | – | – | – | – | –
CNC(CC(C)C)C(=O)NC1C(=O)NC(CC(N)=O)C(=O)NC2C(=O)NC3C(=O)NC(C(=O)NC(C(=O)O)c4cc(O)cc(O)c4-c4cc3ccc4O)C(OC3CC(C)(N)C(O)C(C)O3)c3ccc(c(Cl)c3)Oc3cc2cc(c3OC2OC(CO)C(O)C(O)C2OC2CC(C)(NCCc3ccccc3OCc3ccccc3)C(O)C(C)O2)Oc2ccc(cc2Cl)C1O (stereo not drawn) [Compound 59] | 0.125 (≈ 0.0693 µM) | ≤ 0.06 | 0.125 (≈ 0.0693 µM) | 0.125 (≈ 0.0693 µM) | ≤ 0.06 | 0.125 (≈ 0.0693 µM) | – | ≤ 0.06 | ≤ 0.06 | 0.5 (≈ 0.277 µM) | 1 (≈ 0.555 µM) | ≤ 0.06 | 51 | 0.42 | 0.5 (≈ 0.277 µM) | 0.5 (≈ 0.277 µM) | 1 (≈ 0.555 µM) | 8 (≈ 4.44 µM) | 8 (≈ 4.44 µM) | 8 (≈ 4.44 µM) | MIC [16]: 1 µg/mL (≈ 0.555 µM)
CNC(CC(C)C)C(=O)NC1C(=O)NC(CC(N)=O)C(=O)NC2C(=O)NC3C(=O)NC(C(=O)NC(C(=O)O)c4cc(O)cc(O)c4-c4cc3ccc4O)C(OC3CC(C)(N)C(O)C(C)O3)c3ccc(c(Cl)c3)Oc3cc2cc(c3OC2OC(CO)C(O)C(O)C2OC2CC(C)(NCc3ccccc3O)C(O)C(C)O2)Oc2ccc(cc2Cl)C1O (stereo not drawn) [Compound 169] | ≤ 0.06 | ≤ 0.06 | ≤ 0.06 | ≤ 0.06 | ≤ 0.06 | ≤ 0.06 | ≤ 0.06 | ≤ 0.06 | ≤ 0.06 | ≤ 0.06 | 4 (≈ 2.35 µM) | ≤ 0.06 | 19 | 0.50 | 0.125 (≈ 0.0736 µM) | – | 2 (≈ 1.18 µM) | 1 (≈ 0.589 µM) | 2 (≈ 1.18 µM) | 4 (≈ 2.35 µM) | –
CNC(CC(C)C)C(=O)NC1C(=O)NC(CC(N)=O)C(=O)NC2C(=O)NC3C(=O)NC(C(=O)NC(C(=O)O)c4cc(O)cc(O)c4-c4cc3ccc4O)C(OC3CC(C)(N)C(O)C(C)O3)c3ccc(c(Cl)c3)Oc3cc2cc(c3OC2OC(CO)C(O)C(O)C2OC2CC(C)(NCc3ccc(OC(C)=O)cc3)C(O)C(C)O2)Oc2ccc(cc2Cl)C1O (stereo not drawn) [Compound 138] | ≤ 0.06 | ≤ 0.06 | ≤ 0.06 | ≤ 0.06 | ≤ 0.06 | ≤ 0.06 | ≤ 0.0606 | – | ≤ 0.06 | ≤ 0.06 | – | ≤ 0.06 | 38 | – | 0.5 (≈ 0.287 µM) | – | 2 (≈ 1.15 µM) | 4 (≈ 2.3 µM) | 4 (≈ 2.3 µM) | 8 (≈ 4.6 µM) | MIC [16]: 2 µg/mL (≈ 1.15 µM)
CNC(CC(C)C)C(=O)NC1C(=O)NC(CC(N)=O)C(=O)NC2C(=O)NC3C(=O)NC(C(=O)NC(C(=O)O)c4cc(O)cc(O)c4-c4cc3ccc4O)C(OC3CC(C)(N)C(O)C(C)O3)c3ccc(c(Cl)c3)Oc3cc2cc(c3OC2OC(CO)C(O)C(O)C2OC2CC(C)(NCc3ccc(-c4ccc(OC)cc4)cc3)C(O)C(C)O2)Oc2ccc(cc2Cl)C1O (stereo not drawn) [Compound 54] | 0.5 (≈ 0.28 µM) | ≤ 0.06 | 1 (≈ 0.559 µM) | ≤ 0.06 | ≤ 0.06 | 0.5 (≈ 0.28 µM) | ≤ 0.06 | ≤ 0.06 | ≤ 0.06 | ≤ 0.06 | 0.5 (≈ 0.28 µM) | ≤ 0.06 | 1.7 | 0.56 | 1 (≈ 0.559 µM) | 1 (≈ 0.559 µM) | – | 1 (≈ 0.559 µM) | 2 (≈ 1.12 µM) | 1 (≈ 0.559 µM) | –
CNC(CC(C)C)C(=O)NC1C(=O)NC(CC(N)=O)C(=O)NC2C(=O)NC3C(=O)NC(C(=O)NC(C(=O)O)c4cc(O)cc(O)c4-c4cc3ccc4O)C(OC3CC(C)(N)C(O)C(C)O3)c3ccc(c(Cl)c3)Oc3cc2cc(c3OC2OC(CO)C(O)C(O)C2OC2CC(C)(NCC3CCC(c4ccccc4)C3)C(O)C(C)O2)Oc2ccc(cc2Cl)C1O (stereo not drawn) [Compound 140] | ≤ 0.06 | ≤ 0.06 | 0.5 (≈ 0.286 µM) | ≤ 0.06 | ≤ 0.06 | ≤ 0.06 | ≤ 0.06 | – | ≤ 0.06 | ≤ 0.06 | 8 (≈ 4.57 µM) | ≤ 0.06 | 6.7 | 0.19 | ≤ 0.06 | – | – | 1 (≈ 0.571 µM) | 2 (≈ 1.14 µM) | 8 (≈ 4.57 µM) | –
CNC(CC(C)C)C(=O)NC1C(=O)NC(CC(N)=O)C(=O)NC2C(=O)NC3C(=O)NC(C(=O)NC(C(=O)O)c4cc(O)cc(O)c4-c4cc3ccc4O)C(OC3CC(C)(N)C(O)C(C)O3)c3ccc(c(Cl)c3)Oc3cc2cc(c3OC2OC(CO)C(O)C(O)C2OC2CC(C)(NCc3ccc(-c4ccc(OC)c(OC)c4)cc3)C(O)C(C)O2)Oc2ccc(cc2Cl)C1O (stereo not drawn) [Compound 215] | 2 (≈ 1.1 µM) | ≤ 0.06 | 2 (≈ 1.1 µM) | 2 (≈ 1.1 µM) | 0.5 (≈ 0.275 µM) | ≤ 0.06 | 0.5 (≈ 0.275 µM) | ≤ 0.06 | ≤ 0.06 | – | – | ≤ 0.06 | 2.8 | – | 1 (≈ 0.55 µM) | 0.5 (≈ 0.275 µM) | 0.5 (≈ 0.275 µM) | ≤ 0.06 | 2 (≈ 1.1 µM) | 1 (≈ 0.55 µM) | –

From patent publication US5840684A, “Glycopeptide antibiotic derivatives” (Eli Lilly and Company, priority 1995, dated 1998)
